Experiment [1] addresses T1, Prostaglandin D2 receptor (Mus musculus, UniProt P70263).
T1 sequence (P70263 whole entry): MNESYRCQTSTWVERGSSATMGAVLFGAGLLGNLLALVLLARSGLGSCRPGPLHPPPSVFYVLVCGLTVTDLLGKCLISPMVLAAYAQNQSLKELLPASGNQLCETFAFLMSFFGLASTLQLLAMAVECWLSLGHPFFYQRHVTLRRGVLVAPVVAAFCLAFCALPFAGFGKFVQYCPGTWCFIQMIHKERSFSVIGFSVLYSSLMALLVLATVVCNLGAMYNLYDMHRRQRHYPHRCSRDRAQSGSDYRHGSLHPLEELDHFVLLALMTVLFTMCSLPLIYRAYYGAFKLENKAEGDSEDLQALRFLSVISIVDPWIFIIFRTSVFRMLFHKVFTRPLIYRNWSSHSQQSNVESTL
Description: Binding affinity for mouse Prostanoid DP receptor.

Experiment [2] deals with T2, Prostaglandin E2 receptor EP1 subtype (Mus musculus, UniProt P35375).
T2 sequence (P35375 whole entry): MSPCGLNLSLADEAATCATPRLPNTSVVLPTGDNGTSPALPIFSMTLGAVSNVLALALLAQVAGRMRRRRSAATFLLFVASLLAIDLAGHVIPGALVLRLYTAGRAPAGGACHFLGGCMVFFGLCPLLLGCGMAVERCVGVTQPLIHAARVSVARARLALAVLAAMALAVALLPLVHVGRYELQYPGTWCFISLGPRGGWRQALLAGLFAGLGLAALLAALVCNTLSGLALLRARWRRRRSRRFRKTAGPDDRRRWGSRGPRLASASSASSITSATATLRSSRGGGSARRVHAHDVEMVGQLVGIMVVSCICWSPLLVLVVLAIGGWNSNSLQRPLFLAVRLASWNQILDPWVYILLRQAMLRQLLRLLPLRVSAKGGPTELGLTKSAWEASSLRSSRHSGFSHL
Description: Binding affinity for mouse Prostanoid EP1 receptor.

The target of experiment [3] is T3, Prostaglandin E2 receptor EP3 subtype (Mus musculus, UniProt P30557).
T3 sequence (P30557 whole entry): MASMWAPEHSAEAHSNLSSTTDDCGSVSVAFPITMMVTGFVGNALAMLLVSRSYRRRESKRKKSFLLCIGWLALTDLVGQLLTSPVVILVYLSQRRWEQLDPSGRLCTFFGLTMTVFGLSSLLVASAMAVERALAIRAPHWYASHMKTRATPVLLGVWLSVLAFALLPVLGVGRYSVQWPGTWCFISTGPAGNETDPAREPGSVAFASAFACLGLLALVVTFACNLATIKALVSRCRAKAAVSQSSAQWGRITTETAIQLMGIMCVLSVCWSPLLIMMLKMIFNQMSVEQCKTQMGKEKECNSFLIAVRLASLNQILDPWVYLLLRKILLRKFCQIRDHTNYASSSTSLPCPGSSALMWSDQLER
Description: Binding affinity for mouse Prostanoid EP3 receptor.

The target in experiment [4] is Prostaglandin E2 receptor EP4 subtype (Mus musculus, UniProt P32240). Description: Binding affinity for mouse Prostanoid EP4 receptor.
For experiment [5], the target named is T1, Prostaglandin D2 receptor. Description: Inhibition of mouse Prostanoid DP receptor.
Experiment [6] addresses Prostaglandin E2 receptor EP2 subtype (Mus musculus, UniProt Q62053). Briefly: Binding affinity for mouse Prostanoid EP2 receptor.

Chain of Prostaglandin E2 receptor EP4 subtype (P32240 whole entry): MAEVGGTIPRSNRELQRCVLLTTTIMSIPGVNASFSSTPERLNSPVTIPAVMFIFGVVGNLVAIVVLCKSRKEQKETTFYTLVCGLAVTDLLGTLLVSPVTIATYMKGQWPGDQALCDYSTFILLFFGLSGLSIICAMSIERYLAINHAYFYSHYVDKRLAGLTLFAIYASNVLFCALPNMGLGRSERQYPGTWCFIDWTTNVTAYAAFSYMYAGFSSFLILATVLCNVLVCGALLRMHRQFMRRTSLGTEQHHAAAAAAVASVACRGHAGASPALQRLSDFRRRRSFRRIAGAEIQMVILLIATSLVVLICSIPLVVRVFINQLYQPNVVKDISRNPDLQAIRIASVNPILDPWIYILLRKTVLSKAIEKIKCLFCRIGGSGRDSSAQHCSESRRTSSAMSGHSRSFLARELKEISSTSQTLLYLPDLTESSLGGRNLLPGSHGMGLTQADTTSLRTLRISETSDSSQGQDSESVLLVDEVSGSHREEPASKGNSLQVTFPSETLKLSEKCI
Chain of Prostaglandin E2 receptor EP2 subtype (Q62053 whole entry): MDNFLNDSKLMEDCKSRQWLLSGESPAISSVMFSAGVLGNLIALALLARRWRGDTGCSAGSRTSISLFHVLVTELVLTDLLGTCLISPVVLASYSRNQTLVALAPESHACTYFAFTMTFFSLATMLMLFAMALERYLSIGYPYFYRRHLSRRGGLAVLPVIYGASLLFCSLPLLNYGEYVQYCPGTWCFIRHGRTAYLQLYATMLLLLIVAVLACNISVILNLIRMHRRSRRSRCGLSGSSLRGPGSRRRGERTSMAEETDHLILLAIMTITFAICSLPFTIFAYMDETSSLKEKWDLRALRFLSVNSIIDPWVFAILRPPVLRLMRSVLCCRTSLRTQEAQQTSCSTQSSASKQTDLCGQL

`CCCCOc1ccc(C(=O)n2c(C)c(CC(=O)O)c3ccccc32)cc1`: the Ki (as a rule, a measure of affinity in units of concentration, obtained from inhibition or displacement) in experiment [1] is 0.11 µM; in experiment [2], 5.2 µM; in experiment [3], above 10 µM; in experiment [4], above 10 µM; in experiment [6], 2.1 µM. For the same molecule, inhibition in experiment [5] was half-maximal at 3.9 µM (IC50).
Regarding `CCCCOc1ccc(C(=O)n2c(C)c(CC(=O)O)c3cc(C)ccc32)cc1`, the Ki is 0.15 µM in experiment [1]; 5 µM in experiment [2]; above 10 µM in experiment [3]; 2.2 µM in experiment [4]; 1.7 µM in experiment [6]. Moreover, in experiment [5], inhibition was half-maximal at 2.9 µM (IC50).
As for `CCCCOc1ccc(C(=O)n2c(C)c(CC(=O)O)c3cc(O)ccc32)cc1`, the Ki in experiment [1] is 1.9 µM; in experiment [2], above 10 µM; in experiment [3], above 10 µM; in experiment [4], above 10 µM; in experiment [6] it was 3.3 µM. Further, the IC50 (as a rule, the concentration needed to halve the response being measured) in experiment [5] was above 10 µM.
As to `CCCCOc1ccc(C(=O)n2cc(CC(=O)O)c3cc(OC)ccc32)cc1`, the Ki in experiment [1] was 2.2 µM; in experiment [2] it was above 10 µM; in experiment [3] it was above 10 µM; in experiment [4], above 10 µM; in experiment [6], 8.9 µM.
As for `CCCCOc1ccc(C(=O)n2c(C)c(CCCCC(=O)O)c3cc(OC)ccc32)cc1`, the Ki in experiment [1] is 0.4 µM; in experiment [2], above 10 µM; in experiment [3] it was above 10 µM; in experiment [4], 4.2 µM; in experiment [6] it was 5.2 µM. In experiment [5], this molecule displayed an IC50 of 4.5 µM.
Consider `CCCCOc1ccc(C(=O)n2c(C)c(CCCC(=O)O)c3cc(OC)ccc32)cc1`, for which the Ki in experiment [1] is 0.19 µM; in experiment [2] it was above 10 µM; in experiment [3] it was 2.4 µM; in experiment [4] it was 1.5 µM; in experiment [6], 2.7 µM. Besides, the IC50 in experiment [5] amounted to 0.91 µM.
Consider `CCCCOc1ccc(C(=O)n2c(CC)c(CC(=O)O)c3cc(OC)ccc32)cc1`, for which the Ki in experiment [1] was 1.5 µM; in experiment [2] it was 3.8 µM; in experiment [3] it was above 10 µM; in experiment [4], above 10 µM; in experiment [6] it was 2.9 µM.
Turning to `CCCCOc1ccc(C(=O)n2c(C)c(C(=O)O)c3cc(OC)ccc32)cc1`, the Ki in experiment [1] was 0.94 µM; in experiment [2], above 10 µM; in experiment [3], above 10 µM; in experiment [4], above 10 µM; in experiment [6] it was above 10 µM. The molecule further came in with an IC50 in experiment [5] of 4 µM.
On to `CCCCOc1ccccc1C(=O)n1c(C)c(CC(=O)O)c2cc(OC)ccc21`, for which the Ki in experiment [1] is above 10 µM; in experiment [2], 6.5 µM; in experiment [3], above 10 µM; in experiment [4], above 10 µM; in experiment [6], above 10 µM.
Take `CCCCOc1ccc(C(=O)n2c(C)c(CC(=O)O)c3cc(OC)ccc32)cc1`: the Ki in experiment [1] is 0.27 µM; in experiment [2], above 10 µM; in experiment [3], above 10 µM; in experiment [4], above 10 µM; in experiment [6], 4.7 µM. In experiment [5], this molecule showed an IC50 of 1.6 µM.
Take `CCCCOc1cccc(C(=O)n2c(C)c(CC(=O)O)c3cc(OC)ccc32)c1`: the Ki in experiment [1] was 0.41 µM; in experiment [2] it was above 10 µM; in experiment [3], above 10 µM; in experiment [4] it was above 10 µM; in experiment [6] it was 1.7 µM. In experiment [5], the IC50 is 2.5 µM.
Regarding `CCCCOc1ccc(C(=O)n2c(C)c(CCC(=O)O)c3cc(OC)ccc32)cc1`, the Ki in experiment [1] was 0.28 µM; in experiment [2] it was above 10 µM; in experiment [3], above 10 µM; in experiment [4], 3 µM; in experiment [6] it was 5.7 µM. This molecule had an IC50 in experiment [5] of 1.5 µM.
For `COc1ccc2c(c1)c(CC(=O)O)c(C)n2C(=O)c1ccc(Cl)cc1` [INDOMETHACIN], the Ki in experiment [1], in experiment [2], in experiment [3], in experiment [4] and in experiment [6] was above 10 µM each time. The molecule further gave an IC50 in experiment [5] above 10 µM.

Values taken from ChEMBL document CHEMBL1137193, “Discovery of new chemical leads for prostaglandin D2 receptor antagonists” (Bioorg Med Chem Lett, 2004).
